{
  "source": "paper PMC8490515",
  "about": "“Neuromedin B receptor stimulation of Cav3.2 T-type Ca^2+ channels in primary sensory neurons mediates peripheral pain hypersensitivity” (Theranostics, 2021)",
  "key": {"[1]": {"tested_on": "T-type channels", "conditions": "cited from earlier work; for IT inhibition: dopamine in retinal horizontal cells, adrenaline in newt olfactory receptor cells, prevented by PKA inhibitors, ref [56]; for current density of IT: via PKC, insulin-like growth factor in dorsal root ganglion neurons, angiotensin-II in neonatal cardiomyocytes, ref [28], [60]", "text": "In contrast, stimulation of PKC either by insulin-like growth factor in dorsal root ganglion neurons or by angiote ..."}, "[2]": {"tested_on": "T-type channels in small TG neurons", "assay": "Whole-cell patch clamp of T-type channel currents (IT) in small TG neurons", "format": "cell-based, mouse", "conditions": "for inhibition of IT: 0.5 mM"}, "[3]": {"tested_on": "small TG neurons", "assay": "TG neuronal excitability (action potential firing, rheobase, threshold)", "format": "cell-based, mouse", "protocol": "All the procedures performed in this study were carried out in accordance with NIH guidelines and were approved by the Institutional Animal Care and Use Committee of Soochow University. TG neurons were dissociated as previously described, [23]. Briefly, TGs were harvested from 8- to 10-week-old ICR mice of either sex, cut into small pieces and treated with 2 mg/mL collagenase D (Roche) for 20 min followed by 1.5 mg/mL trypsin (Sigma) at 37 °C for 15 min. Cells were dissociated via gentle trituration with fire-polished sterilized Pasteur pipettes and centrifuged through a 15% BSA gradient to remove debris and nonneuronal cells. TG neurons were resuspended in neurobasal A (Thermo Fisher) supplemented with B27 (Thermo Fisher) and transferred onto Matrigel-coated coverslips. Patch clamp recordings were conducted 2 to 6 h after plating. In shRNA-treated knockdown experiments, TG cells were replated onto coverslips 48 h after infection.\n(§1) Standard whole-cell recordings were made at room temperature (22-23 °C) as described previously, [25]. Recording electrodes were pulled from borosilicate glass microcapillary tubes (Sutter Instruments) and had resistances from 3 to 5 MΩ when filled with internal solution. Recordings were obtained using a MultiClamp 700B amplifier (Axon Instruments). Data were digitized on a personal computer using a Digidata 1440 interface under the control of the pClamp10.2 acquisition package (Molecular Devices). Data were acquired at 20 kHz with a low-pass Bessel filter at 2-5 kHz. Series resistance was compensated to 80%. The internal solution used for T-type channel current recordings contained 110 mM CsCl, 4 mM Mg-ATP, 0.3 mM Na2-GTP, 25 mM HEPES, and 10 mM EGTA, adjusted to pH 7.4 with CsOH; 295 mOsm. The external solution used for T-type channel current recordings contained 5 mM BaCl2, 140 mM TEA-Cl, 10 mM HEPES, 0.5 mM MgCl2, 5 mM CsCl, and 5.5 mM glucose, adjusted to pH 7.35 with TEA-OH; 305 mOsm. In experiments for Kv current recordings, the extracellular solution contained 140 mM choline-Cl, 1 mM MgCl2, 0.03 mM CaCl2, 5 mM KCl, 10 mM HEPES, and 10 mM glucose, adjusted to pH 7.4 with KOH; 310 mOsm. The intracellular pipette solution contained 140 mM KCl, 1 mM MgCl2, 0.5 mM CaCl2, 3 mM Mg-ATP, 0.3 mM Na2-GTP, 10 mM HEPES, and 5 mM EGTA, adjusted to pH 7.4 with KOH; 295 mOsm. The two kinetically distinct Kv currents in small TG neurons were separated by the two-step voltage protocol as previously described, [26]. The external solution for Nav current clamp recordings contained 2 mM KCl, 2 mM MgCl2, 25 mM HEPES, 2 mM CaCl2, 128 mM NaCl, and 30 mM glucose, adjusted to pH 7.4 with NaOH; 305 mOsm. The internal solution contained 10 mM NaCl, 110 mM KCl, 4 mM Mg-ATP, 0.3 mM Na2-GTP, 25 mM HEPES, and 2 mM EGTA, adjusted to pH 7.3 with KOH; 295 mOsm. Nmb was applied to a patched cell by an air-pressure microinjector (Pneumatic PicoPump, model PV830, WPI).\nWe next determined the role of the Nmb-induced T-type channel response in regulating TG neuronal excitability. […] Furthermore, application of Nmb (100 nM) to TG neurons decreased the peak amplitude of the transient outward K^+ channel currents (A-type currents or IA) (decrease of 22.3 ± 3.9%; Figure 6C), while the sustained delayed rectifier K^+ channel currents (IDR) remained unaffected (decrease of 1.9 ± 1.6%; Figure 6C). […] To further test this hypothesis, a shorter (1 ms) current injection was applied to avoid contaminating the action potential waveform with the stimulus. Neurons were manually hyperpolarized to membrane potentials of -75 mV to maximize the number of T-type channels available for activation. With increasingly stronger current injections (+200 pA), the threshold current necessary to evoke an overshooting AP was determined for each neuron in the presence or absence of Nmb."}, "[4]": {"tested_on": "Cav3.2 (α1H)", "assay": "Cav3.2 channel currents in HEK293 cells coexpressing NmbR", "format": "cell-based, human", "protocol": "as §1, with “mOsm.” for “mOsm. The two kinetically distinct Kv currents in small TG neurons were separated by the two-step voltage protocol as previously described, [26]. The external solution for Nav current clamp recordings contained 2 mM KCl, 2 mM MgCl2, 25 mM HEPES, 2 mM CaCl2, 128 mM NaCl, and 30 mM glucose, adjusted to pH 7.4 with NaOH; 305 mOsm. The internal solution contained 10 mM NaCl, 110 mM KCl, 4 mM Mg-ATP, 0.3 mM Na2-GTP, 25 mM HEPES, and 2 mM EGTA, adjusted to pH 7.3 with KOH; 295 mOsm. Nmb was applied to a patched cell by an air-pressure microinjector (Pneumatic PicoPump, model PV830, WPI).”"}, "[5]": {"tested_on": "PKA", "assay": "PKA activity assay in TG cells (Pep Tag)", "format": "cell-based, mouse", "conditions": "pretreatment 10 µM compound C, 100 nM Nmb 30 min", "protocol": "PKA enzymatic activity in cell lysates was measured using the Pep Tag assay for nonradioactive detection of PKA (Promega, Madison, WI, USA) as described in our previous studies. Briefly, TG cells were cultured in 12-well plates and preincubated with BIM23042 (0.5 μM) or compound C (10 μM) followed by exposure to 100 nM Nmb for 30 min. TG cells were washed with ice-cold phosphate-buffered saline and placed on ice. PKA was extracted from the cell lysates with cold PKA extraction buffer (25 mM Tris-HCl, pH 7.4, 0.5 mM EDTA, 0.5 mM EGTA, 10 mM β-mercaptoethanol, 1 μg/mL leupeptin and 1 μg/mL aprotinin). The assay was conducted according to the manufacturer's instructions."}},
  "note": "Ends that are not written are not given here.",
  "data": [
    {"molecule": "NCCc1ccc(O)c(O)c1", "note": "[dopamine]", "values": [
      {"measurement": "IT inhibition", "setting": "[1]", "value": "IT inhibition"}
    ]},
    {"molecule": "cholera toxin", "values": [
      {"measurement": "Nmb-induced increase in IT after cholera toxin (Gs)", "setting": "[2]", "value": "33.5 ± 2.9", "unit": "%"}
    ]},
    {"molecule": "Nc1nc2c(ncn2[C@@H]2O[C@H](COP(=O)(O)OP(O)(O)=S)[C@@H](O)[C@H]2O)c(=O)[nH]1", "note": "[GDP-β-S]", "values": [
      {"measurement": "Nmb-induced increase in IT with GDP-β-S", "setting": "[2]; 1 mM intracellular GDP-β-S, 100 nM Nmb, n = 6", "value": "2.3 ± 2.7", "unit": "%"}
    ]},
    {"molecule": "CCCCCCCCCCCCCC(=O)O[C@@H]1[C@@H](C)[C@@]2(O)[C@@H](C=C(CO)C[C@]3(O)C(=O)C(C)=C[C@@H]23)[C@@H]2C(C)(C)[C@]12OC(C)=O", "note": "[PMA, phorbol 12-myristate 13-acetate]", "values": [
      {"measurement": "effect of PMA on IT", "setting": "[2]; 5 μM, n = 7", "value": "increase in IT"}
    ]},
    {"molecule": "SKEEKSDKER WQHLADLADFALAMKDT [the scrambled peptide of QEHA]", "values": [
      {"measurement": "Nmb-induced increase in IT with SKEE", "setting": "[2]; intracellular 10 μM SKEE, 100 nM Nmb, n = 7", "value": "33.2 ± 3.5", "unit": "%"}
    ]},
    {"molecule": "corticotrophin-releasing factor: T-type channel inhibition induced by corticotrophin-releasing factor (SEEPPISLDLTFHLLREVLEMARAEQLAQQAHSNRKLMEII; ends and bridges not checked; UniProt P06850 154-194, looked up)", "values": [
      {"measurement": "T-type channel inhibition", "setting": "[1]; MN9D dopaminergic cells, prevented by PKC inhibitors, ref [59]", "value": "T-type channel inhibition"}
    ]},
    {"molecule": "COc1ccc2c(c1)CC[C@@H]1[C@@H]2CC[C@]2(C)[C@@H](NCCCCCCN3C(=O)C=CC3=O)CC[C@@H]12", "note": "[U73122]", "values": [
      {"measurement": "Nmb-induced increase in IT after U73122", "setting": "[2]; pretreatment 3 μM U73122 (legend: 1 μM), 100 nM Nmb, n = 8", "value": "31.8 ± 4.2", "unit": "%"}
    ]},
    {"molecule": "QEHAQEPERQYMHIGTMVEFAYALVGK [Gβγ antagonist QEHA peptide]", "values": [
      {"measurement": "Nmb-induced increase in IT with QEHA", "setting": "[2]; dialysis 10 μM QEHA, 100 nM Nmb, n = 6", "value": "3.2 ± 2.5", "unit": "%"}
    ]},
    {"molecule": "angiotensin-II: angiotensin-II in neonatal cardiomyocytes (DRVYIHPF; Angiotensin-2; UniProt P01019 25-32, looked up)", "values": [
      {"measurement": "current density of IT", "setting": "[1]", "value": "significantly increases the current density"}
    ]},
    {"molecule": "[Cl][Ni][Cl]", "note": "[NiCl2]", "values": [
      {"measurement": "decrease of the remaining inward current (IT)", "setting": "[2]; 50 μM, -110 mV Vh to -40 mV, 22-23 °C, n = 5", "value": 79.2, "unit": "%"},
      {"measurement": "inhibition of IT at the end of recording after Nmb", "setting": "[2]; 0.5 mM NiCl2 added at end of recording after 100 nM Nmb", "value": "almost abrogated the IT"},
      {"measurement": "inhibition of IT", "setting": "[2]; n = 5", "value": "almost completely abolished"},
      {"measurement": "inhibition of IT", "setting": "[2]; n = 5, listed as Ni^2+", "value": "completely blocked IT"},
      {"measurement": "effect on Nmb-induced decrease in AP threshold", "setting": "[3]; preincubation 50 µM NiCl2, 100 nM Nmb, n = 9", "value": "completely prevented"},
      {"measurement": "effect on Nmb-mediated increase in AP firing rate / hyperexcitability", "setting": "[3]; pretreatment KT-5720 1 µM (n = 12) or NiCl2 50 μM (n = 11), 100 nM Nmb", "value": "completely abolish"}
    ]},
    {"molecule": "PKC 19-36: a pseudosubstrate peptide inhibitor of PKC (RFARKGALRQKNVHEVKD; UniProt P17252 19-36, looked up, fragment)", "values": [
      {"measurement": "effect on PMA-induced increase in IT", "setting": "[2]; 10 μM PKC 19-36, 5 μM PMA, n = 5", "value": "abrogated the increase in IT"},
      {"measurement": "Nmb-induced increase in IT with PKC 19-36", "setting": "[2]; dialysis 10 µM PKC 19-36, 100 nM Nmb, n = 7", "value": "31.5 ± 3.5", "unit": "%"},
      {"measurement": "Nmb-induced increase of Cav3.2 currents with PKC 19-36", "setting": "[4]; dialysis 10 μM PKC 19-36, 100 nM Nmb, n = 9", "value": "30.8 ± 2.3", "unit": "%"}
    ]},
    {"molecule": "C=C[C@@]1(C)CC(=O)[C@]2(O)[C@@]3(C)[C@@H](O)CCC(C)(C)[C@@H]3[C@H](O)[C@H](OC(C)=O)[C@@]2(C)O1", "note": "[forskolin]", "values": [
      {"measurement": "increase of IT by forskolin", "setting": "[2]; 10 μM, n = 7", "value": "38.3 ± 2.1", "unit": "%"}
    ]},
    {"molecule": "c1cc(-c2cnn3cc(-c4ccc(OCCN5CCCCC5)cc4)cnc23)ccn1", "note": "[compound C]", "values": [
      {"measurement": "Nmb-induced increase in IT after compound C", "setting": "[2]; preincubation 10 µM compound C, 100 nM Nmb, n = 7", "value": "2.6 ± 2.8", "unit": "%"},
      {"measurement": "effect on Nmb-induced increase in PKA activity", "setting": "[5]", "value": "abrogated"},
      {"measurement": "Nmb-induced increase of Cav3.2 currents after compound C", "setting": "[4]; pretreatment 10 µM compound C, 100 nM Nmb, n = 8", "value": "1.4 ± 2.9", "unit": "%"}
    ]},
    {"molecule": "CNC[C@H](O)c1ccc(O)c(O)c1", "note": "[adrenaline]", "values": [
      {"measurement": "IT inhibition", "setting": "[1]", "value": "IT inhibition"}
    ]},
    {"molecule": "insulin-like growth factor", "values": [
      {"measurement": "current density of IT", "setting": "[1]", "value": "significantly increases the current density"}
    ]}
  ]
}
